These results are taken from US6495559B2, “NPY Y5 receptor antagonists” (Merck & Co., Inc., priority 1998, dated 2002).

In general, melting point refers to the temperature of the solid-liquid transition. On to `COc1ccc2oc(NC(=O)N3CCC4(CC3)CN(S(C)(=O)=O)c3ccccc34)nc2c1` [Compound 134, N-(5-methoxybenzoxazol-2-yl)-1-methylsulfonylspiro[indoline-3,4′-piperidine]-1′-carboxamide], for which the melting point lay within 194 to 196 °C.
As for `CS(=O)(=O)N1CC2(CCN(C(=O)Nc3cc4cc(Cl)ccc4[nH]3)CC2)c2ccccc21` [Compound 135, N-(5-chlorobenzoazol-2-yl)-1-methylsulfonylspiro[indoline-3,4′-piperidine]-1′-carboxamide], the melting point fell in the range of 172 to 176 °C.
With `Cc1cccc2sc(NC(=O)N3CCC4(CC3)CN(S(C)(=O)=O)c3ccccc34)nc12` [Compound 137, N-(4-methylbenzothiazol-2-yl)-1-methylsulfonylspiro[indoline-3,4′-piperidine]-1′-carboxamide], the melting point fell in the range of 182 to 183 °C.
Regarding `CS(=O)(=O)N1CC2(CCN(C(=O)Nc3cnc(-c4ccccc4)cn3)CC2)c2ccc(F)cc21` [Compound 139, 6-fluoro-1-methylsulfonyl-N-(5-phenyl-2-pyrazinyl)spiro[indoline-3,4′-piperidine]-1′-carboxamide], the melting point is 234 to 237 °C.
Regarding `CCS(=O)(=O)N1CC2(CCN(C(=O)Nc3cc(-c4ccc(Cl)cc4)on3)CC2)c2ccccc21` [Compound 143, N-[5-(4-chlorophenyl)isoxazol-3-yl]-1-ethylsulfonylspiro[indoline-3,4′-piperidine]-1′-carboxamide], the melting point fell in the range of 178.3 to 178.5 °C.
`CS(=O)(=O)N1CC2(CCN(C(=O)Nc3cnc(-c4nncs4)cn3)CC2)c2ccccc21` [Compound 146, 1-methylsulfonyl-N-[5-(1,3,4-thiadiazol-2-yl)-2-pyrazinyl]spiro[indoline-3,4′-piperidine]-1′-carboxamide]: the melting point lay within 247 to 249 °C.
`CS(=O)(=O)N1CC2(CCN(C(=O)Nc3cnc(-c4ncns4)cn3)CC2)c2ccccc21` [Compound 147, 1-methylsulfonyl-N-[5-(1,2,4-thiadiazol-5-yl)-2-pyrazinyl]spiro[indoline-3,4′-piperidine]-1′-carboxamide] displayed a melting point of 234 to 238 °C.
`CS(=O)(=O)N1CC2(CCN(C(=O)Nc3cnc(-c4nncs4)cn3)CC2)c2ccc(F)cc21` [Compound 148, 6-fluoro-1-methylsulfonyl-N-[5-(1,3,4-thiadiazol-2-yl)-2-pyrazinyl]spiro[indoline-3,4′-piperidine]-1′-carboxamide] came in with a melting point of 242 to 243 °C.
The molecule `CS(=O)(=O)N1CC2(CCN(C(=O)Nc3cnc(-c4ncns4)cn3)CC2)c2ccc(F)cc21` [Compound 149, 6-fluoro-1-methylsulfonyl-N-[5-(1,2,4-thiadiazol-5-yl)-2-pyrazinyl]spiro[indoline-3,4′-piperidine]-1′-carboxamide] came in with a melting point of 237 to 239 °C.
`CS(=O)(=O)N1CC2(CCN(C(=O)Nc3cnc(-c4nncs4)cn3)CC2)c2cc(F)ccc21` [Compound 150, 5-fluoro-1-methylsulfonyl-N-[5-(1,3,4-thiadiazol-2-yl)-2-pyrazinyl]spiro[indoline-3,4′-piperidine]-1′-carboxamide] yielded a melting point of 262 to 266 °C.
In turn, `CS(=O)(=O)N1CC2(CCN(C(=O)Nc3cnc(-c4ncns4)cn3)CC2)c2cc(F)ccc21` [Compound 151, 5-fluoro-1-methylsulfonyl-N-[5-(1,2,4-thiadiazol-5-yl)-2-pyrazinyl]spiro[indoline-3,4′-piperidine]-1′-carboxamide] displayed a melting point of 239 to 240 °C.
As for `CCS(=O)(=O)N1CC2(CCN(C(=O)Nc3cnc(-c4nncs4)cn3)CC2)c2ccccc21` [Compound 152, 1-ethylsulfonyl-N-[5-(1,3,4-thiadiazol-2-yl)-2-pyrazinyl]spiro[indoline-3,4′-piperidine]-1′-carboxamide], the melting point was in the range of 193 to 194 °C.
